# Measurements as given in patent US11324720B2, “Antiproliferative DNA polymerase inhibitor” (NEW YORK MEDICAL COLLEGE, priority 2018, dated 2022).
# Legend:
# Pol δ [1] = target: T1, Pol δ (Homo sapiens, UniProt P28340); assay: single nucleotide primer extension (incorporation) assay; assay type: biochemical; settings: single dNTP present
# T1 construct: made in house; host or cells: insect cells (Pol δ); E. coli (PCNA)
# Experimental: In our in silico screening, the active site cavity was created by the removal of dCTP in the original crystal structure. […] Therefore, we assayed the inhibition patterns of 4 individual dNTP molecules in a single nucleotide incorporation assays. In this assay, only one nucleotide is present for the primer extension for the next appropriate base paring to the template.
# Briefly, the standard reaction mixture contained 5 μM dNTP, 5 mM MgCl2, 50 mM Tris-HCl (pH 7.5), 2 mM dithiothreitol, […] BSA, 50 mM NaCl, 20 nM primer/template, 50 nM PCNA, 10 nM Pol δ and variable concentrations of inhibitors. The reactions were initiated by addition of dNTPs and MgCl2. Reaction was allowed to proceed at 25° C. for 2 min before addition of stop buffer (95% formamide/25 mM EDTA). The products were separated on a 20% polyacrylamide gels urea. Products was visualized on phosphorimager and quantitated using Image-J software. For single nucleotide primer extension assay^18, the protocol is identical to primer extension assay except a single dNTP is used.
# Pol δ [2] = target: T1, Pol δ; assay: poly(dA)/oligo(dT) DNA polymerase assay; assay type: biochemical
# Excerpt: In order to validate the predicted inhibitory properties of zelpolib, we used the well-established DNA polymerase assay, poly(dA)/oligo(dT) method^1,16, to quantify the inhibition constants. In this assay, a poly(dA) template (up to 4 kilobases) was randomly primed with oligo(dT) primers (40 mer). In the presence of proliferating cell nuclear antigen (PCNA), Pol δ will initiate the elongation of oligo dT primer with the incorporation of radio-labeled deoxythymidine (^3H). The polymerase activity can then be precisely quantified by counting the isotope incorporated.
# A model structure of the catalytic domain of human Pol δ was generated based on the structure of yeast pol δ^72 by SWISSPDB^73. The primary sequences of both proteins are conserved and the active sites structures were virtually identical between the model structure and that of yeast pol δ. […] Subsequently, the 300 compounds with the highest scores were selected and analyzed by Pymol. […]
# Three different assays are used to analyze DNA polymerase activities and the impact of zelpolib. The poly(dA)/oligo(dT) assay^1,16 were used for precisely quantification as reported. […] [3H]dTMP incorporation was read on liquid scintillation counter. […]
# BxPC-3 cells = assay: EdU incorporation by laser scanning cytometry; assay type: cell-based, human; settings: 10 and 20 μM; 1 to 2 hours pre-incubation, then EdU pulse
# HCC1395 cells = assay: MTT assay with PARP inhibitors with or without zelpolib; assay type: cell-based, human; settings: 2.5 μM zelpolib, 48 hrs
# Experimental: However, there have been minimal clinical benefits for HR-proficient cancers^37-41. Since zelpolib can inhibit HR, we explored the effect of zelpolib in combination with PARP inhibitors on HR-proficient cancer cells. The hypothesis is that zelpolib will lead to an HR-defect through inhibition of Pol δ and render HR-proficient cells sensitive to PARP inhibition. […] The cells were treated with increasing concentrations of PARP inhibitor Niraparib (FIG. 5B) or Rucaparib (FIG. 5C) in the absence or presence of 2.5 μM zelpolib for 48 hrs. The number of cells were then analyzed by MTT assay.
# Human cancer cells (5×10^3-7.5×10^3) were initially seeded in 96-well plates (Cellstar) containing 0.2 ml media per well. After 24 hrs, these cells were treated with variable concentrations drug combinations for 48-72 hrs. Subsequently, 4,5-dimethylthiazol-2-yl-2,5-diphenyltetrazolium bromide (MTT) (20 μl of 5 mg/ml) was added to each well for 3 hrs. Formazan crystals were then dissolved in 150 μl DMSO and optical density was read at 490 nm^25. All experiments were performed in triplicates. Results were analyzed by GraphPad Prism. Data represent mean value±SEM for each concentration of inhibitor combinations.
# T1 sequence (P28340 whole entry): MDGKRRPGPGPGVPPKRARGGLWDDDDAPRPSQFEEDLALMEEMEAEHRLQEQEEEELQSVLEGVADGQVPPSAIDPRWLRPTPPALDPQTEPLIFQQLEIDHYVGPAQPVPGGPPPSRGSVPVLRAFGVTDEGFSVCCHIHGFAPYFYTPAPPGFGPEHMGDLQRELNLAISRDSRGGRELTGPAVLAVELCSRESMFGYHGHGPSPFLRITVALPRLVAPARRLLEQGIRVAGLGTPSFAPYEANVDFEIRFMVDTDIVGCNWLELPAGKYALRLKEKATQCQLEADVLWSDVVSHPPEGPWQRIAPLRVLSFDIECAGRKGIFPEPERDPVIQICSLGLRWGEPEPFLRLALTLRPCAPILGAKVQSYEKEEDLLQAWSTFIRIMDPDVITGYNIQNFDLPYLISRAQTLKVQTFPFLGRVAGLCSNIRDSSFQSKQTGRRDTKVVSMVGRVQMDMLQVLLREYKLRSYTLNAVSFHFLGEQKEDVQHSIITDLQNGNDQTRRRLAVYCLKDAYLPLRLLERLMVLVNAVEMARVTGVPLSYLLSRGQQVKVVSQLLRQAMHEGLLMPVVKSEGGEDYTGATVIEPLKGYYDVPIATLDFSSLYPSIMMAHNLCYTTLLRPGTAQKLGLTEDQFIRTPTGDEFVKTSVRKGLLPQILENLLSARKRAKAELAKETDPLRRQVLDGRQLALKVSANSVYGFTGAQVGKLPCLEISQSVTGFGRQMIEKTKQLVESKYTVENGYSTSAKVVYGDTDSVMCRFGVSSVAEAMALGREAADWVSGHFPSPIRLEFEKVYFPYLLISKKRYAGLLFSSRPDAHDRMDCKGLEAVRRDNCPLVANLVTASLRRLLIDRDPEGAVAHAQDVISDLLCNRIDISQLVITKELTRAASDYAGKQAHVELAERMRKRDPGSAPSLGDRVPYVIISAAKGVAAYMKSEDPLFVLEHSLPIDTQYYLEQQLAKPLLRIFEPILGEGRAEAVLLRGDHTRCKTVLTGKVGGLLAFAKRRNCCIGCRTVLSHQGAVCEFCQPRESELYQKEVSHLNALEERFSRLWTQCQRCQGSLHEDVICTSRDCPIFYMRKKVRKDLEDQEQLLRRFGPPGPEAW
# T1 sequence (P49005 whole entry partner): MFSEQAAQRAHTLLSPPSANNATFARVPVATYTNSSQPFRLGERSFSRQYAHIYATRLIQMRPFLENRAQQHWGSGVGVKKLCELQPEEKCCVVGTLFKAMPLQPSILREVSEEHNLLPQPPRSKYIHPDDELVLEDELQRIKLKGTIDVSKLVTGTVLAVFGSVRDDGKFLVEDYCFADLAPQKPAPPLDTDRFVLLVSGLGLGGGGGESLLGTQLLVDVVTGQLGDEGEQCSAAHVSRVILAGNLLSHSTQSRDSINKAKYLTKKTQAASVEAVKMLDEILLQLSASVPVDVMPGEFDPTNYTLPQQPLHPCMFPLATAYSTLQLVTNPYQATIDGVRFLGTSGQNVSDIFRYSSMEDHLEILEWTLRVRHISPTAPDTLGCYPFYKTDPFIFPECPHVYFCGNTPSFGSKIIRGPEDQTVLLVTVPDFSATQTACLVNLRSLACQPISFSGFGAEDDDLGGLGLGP
# T1 sequence (Q15054 whole entry partner): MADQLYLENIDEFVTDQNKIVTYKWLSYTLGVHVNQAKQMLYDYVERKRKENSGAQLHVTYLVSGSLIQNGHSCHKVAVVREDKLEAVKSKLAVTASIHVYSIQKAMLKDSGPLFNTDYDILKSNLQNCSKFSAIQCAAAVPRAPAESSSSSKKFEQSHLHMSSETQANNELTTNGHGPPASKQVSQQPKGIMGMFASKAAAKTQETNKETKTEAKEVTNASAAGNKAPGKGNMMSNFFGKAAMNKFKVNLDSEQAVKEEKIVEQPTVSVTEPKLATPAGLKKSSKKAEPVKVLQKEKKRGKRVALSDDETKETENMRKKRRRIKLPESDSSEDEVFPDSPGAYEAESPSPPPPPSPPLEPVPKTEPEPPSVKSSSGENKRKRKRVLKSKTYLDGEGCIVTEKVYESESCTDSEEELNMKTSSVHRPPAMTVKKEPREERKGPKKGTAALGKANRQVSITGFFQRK
# T1 sequence (P12004 whole entry partner): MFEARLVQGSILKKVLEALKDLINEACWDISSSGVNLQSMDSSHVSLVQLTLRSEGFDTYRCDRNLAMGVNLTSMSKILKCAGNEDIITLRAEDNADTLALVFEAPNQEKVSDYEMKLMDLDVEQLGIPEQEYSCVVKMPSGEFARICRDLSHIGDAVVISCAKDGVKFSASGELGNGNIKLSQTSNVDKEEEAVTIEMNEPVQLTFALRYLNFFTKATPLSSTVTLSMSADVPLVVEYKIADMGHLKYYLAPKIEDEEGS
structure (smiles),measurement,setting,value
COC(=O)c1cc(-c2ccccc2)sc1NC(=S)NNC(=O)CCc1ccc(O)c(O)c1 [zelpolib],"inhibition of incorporation of individual dNTPs (dATP, dGTP, dCTP, dTTP)",Pol δ [1],inhibited the incorporation of all four nucleotides to similar extents in a noncompetitive manner
same,inhibition of Pol δ activity at 10 μM,Pol δ [2]; assayed at 10 μM,significant inhibition
same,Ki,"Pol δ [2]; non-competitive against dTTP, with PCNA, R^2=0.99, read-out: inhibition constant Ki of Pol δ activity",4.3 µM
same,EdU incorporation versus sham treatment,BxPC-3 cells,significant reduction of EdU incorporation
same,sensitisation of HCC1395 cells to Rucaparib,HCC1395 cells; difference statistically significant up to 25 μM,behaved similarly to zelpolib and Niraparib combination
same,sensitisation of HCC1395 cells to Niraparib,HCC1395 cells; differences significant up to 20 μM,increased the sensitivity of HCC1395 cells to Niraparib across the whole range of concentrations
